In US4044151A, “Sulfamidophenethanolamine therapeutic process” (Mead Johnson & Company, priority 1975, dated 1977):

Columns and labels:
[1] = tested on: beta-adrenergic receptors; test: beta-adrenergic blocking action and its selectivity (cardiac, vascular smooth muscle, metabolic effects); format: in vivo; settings: for relative specificity of beta-adrenergic antagonism, peripheral vasculature versus heart: effects of beta-adrenergic agonists; for level of activity: in vivo

Row | level of activity [1] | SMILES | anti-arrhythmic activity (anti-arrhythmic activity) | anti-arrhythmic potency relative to procainamide (anti-arrhythmic activity; versus procainamide) | anti-arrhythmic potency relative to quinidine (anti-arrhythmic activity; versus quinidine) | relative specificity of beta-adrenergic antagonism, peripheral vasculature versus heart [1] | selectivity of beta-adrenergic blocking action, cardiac and smooth muscle versus metabolic effects ([1]; versus anti-hyperglycemia and anti-hyperlactacidemia)
1 | high level of activity | CC(C)NCC(O)c1ccc(NS(=O)(=O)N(C)C)cc1 (centres unmarked) [N,N-dimethyl-N'-[4-(1-hydroxy-2-isopropylaminoethyl)phenyl]sulfamide] | potent anti-arrhythmic agent | 2.6 times | 1.3 times | relative specificity for antagonism of the effects of beta-adrenergic agonists on the peripheral vasculature | relatively selective for cardiac and smooth muscle as opposed to the metabolic effects of anti-hyperglycemia and anti-hyperlactacidemia
2 | high level of activity | CC(C)NCC(O)c1ccc(NS(N)(=O)=O)cc1 (centres unmarked) [N-[4-(1-hydroxy-2-isopropylaminoethyl)phenyl]sulfamide] |  |  |  | relatively stronger antagonist of the direct cardiac stimulatory effects evoked by beta-adrenergic agonists than of the peripheral vascular smooth muscle | 
